Patent US4051141A, “Thieno[3,2-c]pyridine derivatives” (Centre d'Etudes pour l'Industrie pharmaceutique, priority 1973, dated 1977)

What was measured:
[1] = Acute toxicity, LD50/24 hrs, intravenous, derivatives of formula (IV); details: mouse, in vivo, mice, read-out: LD50/24 hrs/kg body weight
Source text: It concerned the acute toxicity, the subacute toxicity, the chronic toxicity, the tolerance and the teratology of said derivatives.

[2] = system: carrageenin-induced edema; assay: Localised carrageenin-induced edema method (anti-inflammatory action); type: in vivo; details: rats, oral 100 mg/kg (1 h before, with, 1 h and 2.5 h after)
Procedure: a. Localised Carrageenin-induced Edema Method A 1% carrageenin solution (1 ml) is injected in the metatarsal flexor muscles of the right hind paw of rats at time O. The animals of the treated lots are additionally administered orally 100 mg/kg of the test derivative, respectively one hour prior to and then simultaneously with the phlogogenic agent, and then one hour and 2.5 hrs thereafter. The percent anti-inflammatory activity with respect to the reference lot, as a function of time, is determined by measurements effected with a Roch micrometer at times O, one hour, two hours, three hours and five hours after carrageenin administration.

blood plate aggregation = assay: Inhibitor action on blood plate aggregation induced by adenosine diphosphate (turbidimetric assay of serum from treated animals); type: in vivo; details: rats, 100 mg/kg
Source text: 2. Inhibitor Action on Blood Plate Aggregation
The normally cloudy blood plate rich serum of rats is made clear by addition of adenosine diphosphate which induces aggregation of the blood plates. […] Thus, the inhibitor action on blood plate aggregation of the test derivatives may be evaluated by means of a simple spectrophotometric turbidimetric assay.

ovalbumin-induced edema = assay: Ovalbumin-induced systemic edema method (anti-inflammatory action); type: in vivo; details: rats, oral 100 mg (1 h before and with ovalbumin)
Procedure: b. Ovalbumin-induced Systemic Edema Method Rats are administered a simultaneous intraperitoneal injection of 1 ml ovalbumin and 0.5 ml of a 1.[…]. aqueous Evans Blue solution. The animals of the treated lot are additionally administered orally 100 mg of the test derivative, one hour prior to ovalbumin administration and simultaneously with said ovalbumin administration. The intensity of the phenomenon thus induced is scored according to a scale from 1 to 5, according to the progress of the inflammatory syndrome. Thus are determined the mean intensity of the edema and the percent decrease of the edema reaction with respect to the control lot. Said percentage, for derivative No. 5, for example, is 62% after two hours and 70% after three hours.

in vivo = details: mouse, iv, read-out: LD50/24 hrs/kg body weight

Compound | LD50 at 24 h [1] | also measured
COc1cccc(C(=O)C[n+]2ccc3sccc3c2)c1.[Br-] [derivative No. 32, N-(meta-methoxy-phenacyl)-thieno[3,2-c]pyridinium bromide] | 16 mg/kg | –
COc1ccccc1C(=O)C[n+]1ccc2sccc2c1 [derivative No. 25, 5-(O-Methoxy-Phenacyl)-Thieno[3,2-c]Pyridinium bromide] | 18 mg/kg | –
O=C(C[n+]1ccc2sccc2c1)c1ccccc1.[Br-] [derivative No. 24, 5-phenacyl-thieno[3,2-c]pyridinium bromide] | 19 mg/kg | –
O=C(C[n+]1ccc2sccc2c1)c1ccc(Cl)cc1.[Br-] [derivative No. 27, N-parachloro-phenacyl-thieno[3,2-c]pyridinium bromide] | 17.5 mg/kg | –
O=C(C[n+]1ccc2sc(Cl)cc2c1)c1ccccc1.[Br-] [derivative No. 26, 2-chloro-5-phenacyl-thieno[3,2-c]pyridinium bromide] | 38 mg/kg | –
Cl.Clc1ccc(CN2CCc3sccc3C2)cc1 [derivative 5, 5-parachlorobenzyl-4,5,6,7-tetrahydro-thieno-[3,2-c]pyridine hydrochloride] | – | percent anti-inflammatory activity with respect to the reference lot ([2]; after five hours): 55%; percent anti-inflammatory activity with respect to the reference lot ([2]; after one hour): 45%; percent anti-inflammatory activity with respect to the reference lot ([2]; after three hours): 52%; percent anti-inflammatory activity with respect to the reference lot ([2]; after two hours): 51%; protection against blood plate aggregation (blood plate aggregation): greater than 95%; percent decrease of the edema reaction with respect to the control lot (ovalbumin-induced edema; after three hours): 70%; percent decrease of the edema reaction with respect to the control lot (ovalbumin-induced edema; after two hours): 62%
O=C(C[n+]1ccc2sccc2c1)c1ccc(F)cc1.[Cl-] [derivative No. 29, 5-para-fluoro-phenacyl-thieno[3,2-c]pyridinium chloride] | 16 mg/kg | –
COc1ccc(C(=O)C[n+]2ccc3sccc3c2)cc1.[Br-] [derivative No. 31, N-(para-methoxy-phenacyl)-thieno[3,2-c]pyridinium bromide] | 32 mg/kg | –
COc1cc(CN2CCc3sccc3C2)cc(OC)c1OC [derivative 3, 5-(3,4,5-trimethoxy-benzyl)-4,5,6,7-tetrahydrothieno[3,2-c]pyridine] | – | LD50 at 24 h (in vivo): 60 mg/kg
O=C(C[n+]1ccc2sccc2c1)c1ccc(O)cc1.[Cl-] [derivative No. 30, N-(para-hydroxy-phenacyl)-thieno[3,2-c]pyridinium chloride] | 25 mg/kg | –
